Assay type in all cases: biochemical
The target of test [1] is T1, recombinant human VAP-1 (Homo sapiens, UniProt Q16853).
T1 construct: purchased R&D systems
T1 sequence (Q16853 1-763): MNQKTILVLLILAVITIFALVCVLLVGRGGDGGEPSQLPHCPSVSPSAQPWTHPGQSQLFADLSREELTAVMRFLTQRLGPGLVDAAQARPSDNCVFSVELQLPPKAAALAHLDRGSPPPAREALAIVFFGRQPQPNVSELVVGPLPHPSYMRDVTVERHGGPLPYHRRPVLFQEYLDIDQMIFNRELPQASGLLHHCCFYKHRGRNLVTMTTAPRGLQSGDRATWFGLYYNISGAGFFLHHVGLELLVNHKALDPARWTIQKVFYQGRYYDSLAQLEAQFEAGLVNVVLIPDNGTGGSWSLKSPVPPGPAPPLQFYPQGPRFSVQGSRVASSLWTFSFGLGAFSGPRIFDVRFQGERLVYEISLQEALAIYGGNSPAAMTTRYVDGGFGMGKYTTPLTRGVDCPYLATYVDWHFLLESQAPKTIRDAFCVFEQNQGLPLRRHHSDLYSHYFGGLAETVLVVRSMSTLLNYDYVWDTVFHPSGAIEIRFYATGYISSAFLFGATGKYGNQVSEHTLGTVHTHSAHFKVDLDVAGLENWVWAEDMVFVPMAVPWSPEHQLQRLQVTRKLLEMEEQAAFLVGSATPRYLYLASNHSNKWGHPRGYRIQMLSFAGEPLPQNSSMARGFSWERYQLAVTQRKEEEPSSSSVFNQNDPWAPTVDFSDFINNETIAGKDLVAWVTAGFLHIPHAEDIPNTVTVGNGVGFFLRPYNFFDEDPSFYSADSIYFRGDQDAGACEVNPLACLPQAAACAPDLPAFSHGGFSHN
The test can be described thus: Activity evaluation on recombinant human VAP-1 (Amplex Red/HRP-coupled hydrogen peroxide assay, benzylamine substrate). The settings on record: read-out: Inhibitory Activity (IC50, nM) human VAP-1. In short, it runs like this: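 Hydrogen peroxide from benzylamine (1 mM) oxidation by human recombinant VAP-1 detected via HRP-coupled Amplex Red (200 uM) fluorescence, kinetic over 1–2 h. Enzyme and compound preincubated 30 min at 37 °C, pH 7.4 phosphate; 8-point dose response, signal-rate decrease versus DMSO control fitted to four-parameter logistic for IC50.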

The target in test [2] is T2, recombinant human DAO (diamine oxidase) (Homo sapiens, UniProt P19801).
T2 construct: purchased R&D systems
T2 sequence (P19801 20-751): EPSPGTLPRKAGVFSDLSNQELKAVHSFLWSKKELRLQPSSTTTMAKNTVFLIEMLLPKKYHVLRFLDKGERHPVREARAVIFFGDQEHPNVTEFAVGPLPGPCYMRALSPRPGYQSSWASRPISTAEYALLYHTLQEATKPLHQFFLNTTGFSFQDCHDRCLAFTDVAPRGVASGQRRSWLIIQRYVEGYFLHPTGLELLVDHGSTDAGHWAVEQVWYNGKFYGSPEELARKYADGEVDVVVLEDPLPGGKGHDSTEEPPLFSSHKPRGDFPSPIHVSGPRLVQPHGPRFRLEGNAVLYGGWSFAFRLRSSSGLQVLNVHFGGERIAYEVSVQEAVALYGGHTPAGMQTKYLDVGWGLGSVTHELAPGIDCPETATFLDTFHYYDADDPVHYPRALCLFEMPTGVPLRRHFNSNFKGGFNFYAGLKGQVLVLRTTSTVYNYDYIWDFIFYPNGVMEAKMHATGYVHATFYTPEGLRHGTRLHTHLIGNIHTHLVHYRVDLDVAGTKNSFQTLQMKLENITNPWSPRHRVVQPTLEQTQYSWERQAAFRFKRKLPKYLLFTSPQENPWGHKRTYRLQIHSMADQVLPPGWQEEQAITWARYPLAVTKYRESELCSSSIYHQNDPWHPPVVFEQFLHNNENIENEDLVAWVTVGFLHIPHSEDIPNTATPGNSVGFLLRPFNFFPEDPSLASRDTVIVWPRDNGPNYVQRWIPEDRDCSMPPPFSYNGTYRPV
The test can be described thus: Activity evaluation on recombinant human DAO (Amplex Red/HRP-coupled assay, 1 mM putrescine substrate). The settings on record: read-out: Inhibitory Activity (IC50, nM) DAO. In short, it runs like this: (§1)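 8-pt 1:3 dilution series, final DMSO <1%; 30 min 37 °C preincubation w/ enzyme, 50 mM Na phosphate pH 7.4; + 200 uM Amplex Red, 1 U/mL HRP, substrate (MAO-A tyramine 0.5 mM; MAO-B benzylamine 1 mM; DAO putrescine 1 mM); fluor. rate 544/590 nm, 1-2 h; 4-param IC50.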

The target in test [3] is T3, recombinant human MAO-B (monoamine oxidase-B) (Homo sapiens, UniProt P27338).
T3 construct: purchased Sigma-Aldrich
T3 sequence (P27338 1-520): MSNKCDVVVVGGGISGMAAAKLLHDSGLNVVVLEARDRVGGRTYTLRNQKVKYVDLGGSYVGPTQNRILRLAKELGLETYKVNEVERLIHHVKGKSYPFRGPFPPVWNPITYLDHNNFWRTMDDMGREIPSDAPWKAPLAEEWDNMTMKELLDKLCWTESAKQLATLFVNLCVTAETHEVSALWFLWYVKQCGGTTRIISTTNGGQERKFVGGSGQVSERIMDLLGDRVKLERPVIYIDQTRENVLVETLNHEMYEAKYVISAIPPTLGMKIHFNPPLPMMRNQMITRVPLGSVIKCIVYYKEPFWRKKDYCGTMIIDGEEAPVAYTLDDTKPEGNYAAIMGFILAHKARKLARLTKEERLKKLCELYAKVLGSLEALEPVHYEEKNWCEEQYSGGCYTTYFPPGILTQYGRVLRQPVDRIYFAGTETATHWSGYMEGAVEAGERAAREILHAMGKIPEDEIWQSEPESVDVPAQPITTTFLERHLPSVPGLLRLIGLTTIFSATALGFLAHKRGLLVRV
The test can be described thus: Activity evaluation on recombinant human MAO-B (Amplex Red/HRP-coupled assay, 1 mM benzylamine substrate). The settings on record: read-out: Inhibitory Activity (IC50, nM) MAO-B. In short, it runs like this: as §1

In test [4] the target is T4, recombinant human MAO-A (monoamine oxidase-A) (Homo sapiens, UniProt P21397).
T4 construct: purchased Sigma-Aldrich
T4 sequence (P21397 1-527): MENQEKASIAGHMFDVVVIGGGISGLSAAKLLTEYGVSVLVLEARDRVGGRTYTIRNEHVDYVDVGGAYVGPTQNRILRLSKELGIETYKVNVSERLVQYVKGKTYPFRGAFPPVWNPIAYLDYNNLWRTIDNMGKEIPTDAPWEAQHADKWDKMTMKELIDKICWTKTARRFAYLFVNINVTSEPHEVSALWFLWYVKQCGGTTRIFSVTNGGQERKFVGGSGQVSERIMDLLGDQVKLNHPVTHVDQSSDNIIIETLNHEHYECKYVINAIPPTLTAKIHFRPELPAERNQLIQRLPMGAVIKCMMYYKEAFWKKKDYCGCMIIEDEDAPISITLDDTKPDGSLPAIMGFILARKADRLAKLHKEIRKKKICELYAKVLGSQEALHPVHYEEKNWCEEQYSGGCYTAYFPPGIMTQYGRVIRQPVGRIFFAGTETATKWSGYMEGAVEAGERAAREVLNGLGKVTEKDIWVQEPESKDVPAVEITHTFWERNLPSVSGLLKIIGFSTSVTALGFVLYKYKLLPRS
Description: Activity evaluation on recombinant human MAO-A (Amplex Red/HRP-coupled assay, 0.5 mM tyramine substrate). The settings on record: read-out: Inhibitory Activity (IC50, nM) MAO-A. In a few lines: as §1

[5] abbreviates: recombinant human VAP-1, 30 min preincubation at 37° C., 1 mM benzylamine.
The mark [6] stands for this setting: recombinant human VAP-1, benzylamine substrate.

Molecules are shown by their SMILES. Counter-ions that a name gives are not always drawn. Like-named read-outs stand apart in the source and are kept apart here. Bounds are passed on as bounds.

The IC50 is the concentration that inhibits the measured activity by half. Regarding `NCC(Cn1ncn(-c2cnc(-c3ccc4c(c3)OCO4)cn2)c1=O)=C(F)F` [Example 93, 2-[2-(aminomethyl)-3,3-difluoro-allyl]-4-[5-(1,3-benzodioxol-5-yl)pyrazin-2-yl]-1,2,4-triazol-3-one Trifluoroacetate], the IC50 in test [1] (setting [5]) was 0.3 nM; in test [2] (1 mM putrescine), 21 nM; in test [3] (1 mM benzylamine), 50 nM; in test [4] (0.5 mM tyramine) it was greater than 100000 nM.
For `CNC(=O)c1ccc(-c2ccc(Cn3cnn(CC(CN)=C(F)F)c3=O)s2)cc1` [Example 104, 4-[5-[[1-[2-(aminomethyl)-3,3-difluoro-allyl]-5-oxo-1,2,4-triazol-4-yl]methyl]-2-thienyl]-N-methyl-benzamide trifluoroacetate], in that order: 0.5 nM, 31000 nM, greater than 10000 nM and greater than 100000 nM.
For `NCC(Cn1ncn(-c2ccnc(-c3ccc(N4CCNCC4)cc3)c2)c1=O)=C(F)F` [Example 62, 2-[2-(aminomethyl)-3,3-difluoro-allyl]-4-[2-(4-piperazin-1-ylphenyl)-4-pyridyl]-1,2,4-triazol-3-one Ditrifluoroacetate], in that order: 1.5 nM, 160 nM, greater than 100000 nM and greater than 100000 nM.
Turning to `NCC(Cn1ncn(-c2ccc(-c3ccc(C(F)(F)F)nc3)cc2F)c1=O)=C(F)F` [Example 33, 2-[2-(aminomethyl)-3,3-difluoro-allyl]-4-[2-fluoro-4-[6-(trifluoromethyl)-3-pyridyl]phenyl]-1,2,4-triazol-3-one Trifluoroacetate], the IC50 in test [1] (setting [5]) turned out to be 0.3 nM; in test [2] (1 mM putrescine), 17 nM; in test [3] (1 mM benzylamine), 190 nM; in test [4] (0.5 mM tyramine), 11000 nM.
Take `Cc1cc(C#Cc2cnc3c(c2)NC(=O)CO3)cnc1-n1cnn(CC(CN)=C(F)F)c1=O` [Example 247, 7-[2-[6-[1-[2-(aminomethyl)-3,3-difluoro-allyl]-5-oxo-1,2,4-triazol-4-yl]-5-methyl-3-pyridyl]ethynyl]-1H-pyrido[2,3-b][1,4]oxazin-2-one Trifluoroacetate]: the IC50 in test [1] (setting [6]) is 0.3 nM; in test [2] (1 mM putrescine substrate), 43000 nM; in test [3] (1 mM benzylamine substrate), greater than 100000 nM; in test [4] (0.5 mM tyramine substrate), greater than 100000 nM.
Take `Cc1cc(-c2ccc(S(C)(=O)=O)cc2)sc1Cn1cnn(CC(CN)=C(F)F)c1=O` [Example 154, 2-[2-(aminomethyl)-3,3-difluoro-allyl]-4-[[3-methyl-5-(4-methylsulfonylphenyl)-2-thienyl]methyl]-1,2,4-triazol-3-one Trifluoroacetate]: the half-inhibitory concentration (IC50) is 4 nM in test [1] (setting [5]), 21000 nM in test [2] (1 mM putrescine), greater than 100000 nM in test [3] (1 mM benzylamine) and greater than 100000 nM in test [4] (0.5 mM tyramine).
For the compound `COc1ccc(-c2cnc(-n3cnn(CC(CN)=C(F)F)c3=O)c(C)c2)cn1` [Example 225, 2-[2-(aminomethyl)-3,3-difluoro-allyl]-4-[5-(6-methoxy-3-pyridyl)-3-methyl-2-pyridyl]-1,2,4-triazol-3-one Trifluoroacetate], the IC50 in test [1] (setting [6]) is 0.5 nM; in test [2] (1 mM putrescine substrate), 14000 nM; in test [3] (1 mM benzylamine substrate), 1600 nM; in test [4] (0.5 mM tyramine substrate) it was greater than 100000 nM.
In the same order, the values of `CCn1cc(-c2cccc(-n3cnn(CC(CN)=C(F)F)c3=O)n2)ccc1=O` [Example 218, 5-[6-[1-[2-(aminomethyl)-3,3-difluoro-allyl]-5-oxo-1,2,4-triazol-4-yl]-2-pyridyl]-1-ethyl-pyridin-2-one Trifluoroacetate] are 0.8 nM, 130 nM, greater than 100000 nM and greater than 100000 nM.
Take `Cc1cc(-c2ccc3cc(Cn4cnn(CC(CN)=C(F)F)c4=O)sc3c2)cc2c1NC(=O)CC2` [Example 202, 6-[2-[[1-[2-(aminomethyl)-3,3-difluoro-allyl]-5-oxo-1,2,4-triazol-4-yl]methyl]benzothiophen-6-yl]-8-methyl-3,4-dihydro-1H-quinolin-2-one Trifluoroacetate]: the IC50 in test [1] (setting [6]) is 2 nM; in test [2] (1 mM putrescine substrate), 5600 nM; in test [3] (1 mM benzylamine substrate), greater than 100000 nM; in test [4] (0.5 mM tyramine substrate), greater than 100000 nM.
As for `Cc1c(-c2ccc(Cn3cnn(CC(CN)=C(F)F)c3=O)s2)ccc2c1NCCO2` [Example 139, 2-[2-(aminomethyl)-3,3-difluoro-allyl]-4-[[5-(5-methyl-3,4-dihydro-2H-1,4-benzoxazin-6-yl)-2-thienyl]methyl]-1,2,4-triazol-3-one Trifluoroacetate], the IC50 was 1 nM in test [1] (setting [5]), 73000 nM in test [2] (1 mM putrescine), 21000 nM in test [3] (1 mM benzylamine) and 21000 nM in test [4] (0.5 mM tyramine).
On to `NCC(Cn1ncn(Cc2ccc(-c3ccc(N4CCNCC4)cc3)cc2)c1=O)=C(F)F` [Example 266, 2-[2-(aminomethyl)-3,3-difluoro-allyl]-4-[[4-(4-piperazin-1-ylphenyl)phenyl]methyl]-1,2,4-triazol-3-one Ditrifluoroacetate], for which the IC50 was 9.1 nM in test [1] (setting [6]), 330 nM in test [2] (1 mM putrescine substrate), greater than 100000 nM in test [3] (1 mM benzylamine substrate) and greater than 100000 nM in test [4] (0.5 mM tyramine substrate).

These data come from patent US11168073B2, “3,3-difluoroallylamines or salts thereof and pharmaceutical compositions comprising the same” (YUHAN CORPORATION, priority 2018, dated 2021).
